Columns and labels:
Assay in all cases: Bliss excess, mean over the matrix (fraction); higher = more synergy
[1] = tested on: NCI-H835 (Other Solid Carcinomas)
Outline: (§1)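 Cell lines in DMEM/F12 or RPMI with 10% FBS were plated in 1536-well plates, held 24 hours at 37°C, 5% CO2, then given two-drug dose matrices for 72 hours (DMSO typically 0.2%). Viability was read by CellTiter-Glo 2.0 luminescence and scaled as inhibition from 0 (vehicle wells) to 1 (blank wells). Combination Emax is the second-highest inhibition in the matrix; Bliss excess is observed combination effect minus expected EA + EB − EA·EB, EA and EB being single-agent effects.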

[2] = tested on: A375 (Melanoma)
Outline: as §1

[3] = tested on: KNS-62 (Squamous Cell Lung Carcinoma)
Outline: as §1

[4] = tested on: MRK-nu-1 (Breast Carcinoma)
Outline: as §1

[5] = tested on: NCI-H2009 (Lung Adenocarcinoma)
Outline: as §1

[6] = tested on: L-363 (Plasma Cell Myeloma)
Outline: as §1

[7] = tested on: NCI-H1648 (Lung Adenocarcinoma)
Outline: as §1

[8] = tested on: SK-MEL-24 (Melanoma)
Outline: as §1

[9] = tested on: CAL-85-1 (Breast Carcinoma)
Outline: as §1

[10] = tested on: NCI-H1048 (Small Cell Lung Carcinoma)
Outline: as §1

[11] = tested on: NCI-H1975 (Lung Adenocarcinoma)
Outline: as §1

[12] = tested on: IGROV-1 (Ovarian Carcinoma)
Outline: as §1

[13] = tested on: JURL-MK1 (Chronic Myelogenous Leukemia)
Outline: as §1

[14] = tested on: GRANTA-519 (B-Cell Non-Hodgkin's Lymphoma)
Outline: as §1

[15] = tested on: TOV-21G (Ovarian Carcinoma)
Outline: as §1

[16] = tested on: HT-3 (Cervical Carcinoma)
Outline: as §1

[17] = tested on: BT-474 (Breast Carcinoma)
Outline: as §1

[18] = tested on: JJN-3 (Plasma Cell Myeloma)
Outline: as §1

[19] = tested on: TK (B-Cell Non-Hodgkin's Lymphoma)
Outline: as §1

[20] = tested on: C2BBe1 (Colorectal Carcinoma)
Outline: as §1

SMILES: CN(CCO)CC[C@H](CSc1ccccc1)Nc1ccc(S(=O)(=O)NC(=O)c2ccc(N3CCC([C@@H](O)c4ccccc4-c4ccc(Cl)cc4)CC3)cc2)cc1S(=O)(=O)C(F)(F)F [AZD4320] + CS(=O)(=O)CCNCc1ccc(-c2ccc3ncnc(Nc4ccc(OCc5cccc(F)c5)c(Cl)c4)c3c2)o1 [Lapatinib] (first compound max 1 µM, 7x7, partner max 10 µM)
- Bliss excess [1]: 0.0449
- Bliss excess [2]: 0.0275
- Bliss excess [3]: -0.0185
- Bliss excess [4]: -0.0167
- Bliss excess [5]: -0.0017
- Bliss excess [6]: 0.0082
- Bliss excess [7]: -0.0316
- Bliss excess [8]: 0.0316
- Bliss excess [9]: 0.0241

SMILES: O=C(c1cc(Cc2n[nH]c(=O)c3ccccc23)ccc1F)N1CCN(C(=O)C2CC2)CC1 [Olaparib] + CC1(C)CCC(CN2CCN(c3ccc(C(=O)NS(=O)(=O)c4ccc(NCC5CCOCC5)c([N+](=O)[O-])c4)c(Oc4cnc5[nH]ccc5c4)c3)CC2)=C(c2ccc(Cl)cc2)C1 [Venetoclax] (first compound max 10 µM, 7x7, partner max 1 µM)
- Bliss excess [1]: -0.0096
- Bliss excess [2]: -0.0248
- Bliss excess [3]: -0.0346
- Bliss excess [4]: 0.0277
- Bliss excess [5]: -0.0323
- Bliss excess [6]: 0.0557
- Bliss excess [7]: -0.0403
- Bliss excess [8]: -0.0534
- Bliss excess [9]: -0.026

SMILES: CS(=O)(=O)CCNCc1ccc(-c2ccc3ncnc(Nc4ccc(OCc5cccc(F)c5)c(Cl)c4)c3c2)o1 [Lapatinib] + Cn1cnc2c(F)c(Nc3ccc(Br)cc3Cl)c(C(=O)NOCCO)cc21 [Selumetinib] (first compound max 10 µM, 7x7, partner max 10 µM)
- Bliss excess [1]: -0.0013
- Bliss excess [2]: -0.0348
- Bliss excess [3]: 0.0708
- Bliss excess [4]: 0.0764
- Bliss excess [5]: -0.0531
- Bliss excess [6]: -0.0027
- Bliss excess [7]: 0.116
- Bliss excess [8]: 0.0129
- Bliss excess [9]: 0.0396

SMILES: O=C(c1cc(Cc2n[nH]c(=O)c3ccccc23)ccc1F)N1CCN(C(=O)C2CC2)CC1 [Olaparib] + Cc1c2c(nn1C)CSCc1cc(n(C)n1)CSc1cc(c3ccccc3c1)OCCCc1c(C(=O)O)n(C)c3c-2c(Cl)ccc13 [AZD5991] (first compound max 10 µM, 7x7, partner max 1 µM)
- Bliss excess [1]: -0.0467
- Bliss excess [2]: -0.0264
- Bliss excess [3]: -0.0396
- Bliss excess [4]: 0.0135
- Bliss excess [5]: -0.0445
- Bliss excess [6]: 0.0277
- Bliss excess [7]: -0.0083
- Bliss excess [8]: -0.0478
- Bliss excess [9]: -0.0484

SMILES: C[C@@H]1COCCN1c1cc(C2([S@](C)(=N)=O)CC2)nc(-c2ccnc3[nH]ccc23)n1 [AZD6738] + C1CC(C1)(C(=O)[O-])C(=O)[O-].N.N.[Pt+2] [Carboplatin] (first compound max 10 µM, 7x7, partner max 10 µM)
- Bliss excess [1]: -0.0529
- Bliss excess [2]: -0.0113
- Bliss excess [3]: -0.0581
- Bliss excess [4]: -0.0127
- Bliss excess [5]: -0.0556
- Bliss excess [6]: -0.0089
- Bliss excess [7]: -0.0579
- Bliss excess [8]: -0.0748
- Bliss excess [9]: -0.0551

SMILES: C=CCn1c(=O)c2cnc(Nc3ccc(N4CCN(C)CC4)cc3)nc2n1-c1cccc(C(C)(C)O)n1 [AZD1775] + CCc1c2c(nc3ccc(O)cc13)-c1cc3c(c(=O)n1C2)COC(=O)[C@]3(O)CC [SN-38] (first compound max 1 µM, partner max 0.3 µM)
- Bliss excess [1]: -0.0442
- Bliss excess [2]: -0.0409
- Bliss excess [3]: -0.0374
- Bliss excess [4]: 0.0275
- Bliss excess [5]: 0.0769
- Bliss excess [6]: 0.0273
- Bliss excess [7]: -0.0217
- Bliss excess [8]: -0.103
- Bliss excess [9]: -0.0337

SMILES: C[C@@H](Nc1cc(F)cc(F)c1)c1cc(C(=O)N(C)C)cc2c(=O)cc(N3CCOCC3)oc12 [AZD8186] + CC(=O)c1c(C)c2cnc(Nc3ccc(N4CCNCC4)cn3)nc2n(C2CCCC2)c1=O [Palbociclib] (first compound max 10 µM, 7x7, partner max 10 µM)
- Bliss excess [1]: 0.0763
- Bliss excess [2]: 0.0781
- Bliss excess [3]: -0.0035
- Bliss excess [4]: 0.0696
- Bliss excess [5]: -0.0184
- Bliss excess [6]: 0.0624
- Bliss excess [7]: 0.0672
- Bliss excess [8]: 0.0814
- Bliss excess [9]: -0.0529

SMILES: Cc1c2c(nn1C)CSCc1cc(n(C)n1)CSc1cc(c3ccccc3c1)OCCCc1c(C(=O)O)n(C)c3c-2c(Cl)ccc13 [AZD5991] + CS(=O)(=O)CCNCc1ccc(-c2ccc3ncnc(Nc4ccc(OCc5cccc(F)c5)c(Cl)c4)c3c2)o1 [Lapatinib] (first compound max 1 µM, 7x7, partner max 10 µM)
- Bliss excess [1]: 0.019
- Bliss excess [2]: 0.0109
- Bliss excess [3]: -0.0155
- Bliss excess [4]: 0.0112
- Bliss excess [5]: -0.0136
- Bliss excess [6]: 0.0132
- Bliss excess [7]: -0.023
- Bliss excess [8]: -0.0651
- Bliss excess [9]: -0.0213

SMILES: Cc1c2c(nn1C)CSCc1cc(n(C)n1)CSc1cc(c3ccccc3c1)OCCCc1c(C(=O)O)n(C)c3c-2c(Cl)ccc13 [AZD5991] + CN(C)CCCOc1ccc(-c2ccc3ncc4c(c3c2)n(C2CCOCC2)c(=O)n4C)cn1 [AZD0156] (first compound max 1 µM, 7x7, partner max 1 µM)
- Bliss excess [10]: 0.0136
- Bliss excess [11]: -0.0241
- Bliss excess [12]: -0.0297
- Bliss excess [13]: -0.0403
- Bliss excess [2]: 0.0053
- Bliss excess [3]: -0.0201
- Bliss excess [4]: -0.028
- Bliss excess [14]: -0.0017
- Bliss excess [15]: -0.0213
- Bliss excess [5]: -0.0204
- Bliss excess [6]: 0.0235
- Bliss excess [7]: -0.0433
- Bliss excess [8]: -0.0328
- Bliss excess [16]: 0.0222
- Bliss excess [17]: 0.0064
- Bliss excess [18]: -0.0028
- Bliss excess [9]: -0.0542
- Bliss excess [19]: 0.0046
- Bliss excess [20]: 0.0009

SMILES: Cc1c2c(nn1C)CSCc1cc(n(C)n1)CSc1cc(c3ccccc3c1)OCCCc1c(C(=O)O)n(C)c3c-2c(Cl)ccc13 [AZD5991] + C=CCn1c(=O)c2cnc(Nc3ccc(N4CCN(C)CC4)cc3)nc2n1-c1cccc(C(C)(C)O)n1 [AZD1775] (first compound max 1 µM, partner max 1 µM)
- Bliss excess [10]: 0.0002
- Bliss excess [11]: -0.0523
- Bliss excess [12]: 0.0847
- Bliss excess [13]: 0.0395
- Bliss excess [2]: 0.0237
- Bliss excess [3]: 0.0251
- Bliss excess [4]: -0.0285
- Bliss excess [14]: -0.055
- Bliss excess [15]: -0.0865
- Bliss excess [5]: -0.0051
- Bliss excess [6]: 0.0077
- Bliss excess [7]: -0.0359
- Bliss excess [8]: 0.0416
- Bliss excess [16]: -0.0335
- Bliss excess [17]: -0.0298
- Bliss excess [18]: -0.0331
- Bliss excess [9]: -0.0194
- Bliss excess [19]: -0.0721
- Bliss excess [20]: 0.0165

— the supplement of paper PMC11061612
